In US12060352B2, “Substituted pyrrolo[2,3-d]pyrimidines having ectonucleotide pyrophosphatase-phosphodiesterase inhibitory activity” (KOREA INSTITUTE OF SCIENCE AND TECHNOLOGY, priority 2021, dated 2024):
Where a name gives a salt, the structure may show the parent alone.

These compounds were tested against T1, human recombinant ENPP1 (Homo sapiens, UniProt P22413) (assay: ENPP1 enzyme assay with cGAMP substrate (AMP-Glo)). Details: human recombinant ENPP1 3 ng per reaction, cGAMP 5 μM, 37° C., 90 minutes, AMP-Glo luminescence.
T1 construct: purchased R&D Systems
T1 sequence (P22413 1-925): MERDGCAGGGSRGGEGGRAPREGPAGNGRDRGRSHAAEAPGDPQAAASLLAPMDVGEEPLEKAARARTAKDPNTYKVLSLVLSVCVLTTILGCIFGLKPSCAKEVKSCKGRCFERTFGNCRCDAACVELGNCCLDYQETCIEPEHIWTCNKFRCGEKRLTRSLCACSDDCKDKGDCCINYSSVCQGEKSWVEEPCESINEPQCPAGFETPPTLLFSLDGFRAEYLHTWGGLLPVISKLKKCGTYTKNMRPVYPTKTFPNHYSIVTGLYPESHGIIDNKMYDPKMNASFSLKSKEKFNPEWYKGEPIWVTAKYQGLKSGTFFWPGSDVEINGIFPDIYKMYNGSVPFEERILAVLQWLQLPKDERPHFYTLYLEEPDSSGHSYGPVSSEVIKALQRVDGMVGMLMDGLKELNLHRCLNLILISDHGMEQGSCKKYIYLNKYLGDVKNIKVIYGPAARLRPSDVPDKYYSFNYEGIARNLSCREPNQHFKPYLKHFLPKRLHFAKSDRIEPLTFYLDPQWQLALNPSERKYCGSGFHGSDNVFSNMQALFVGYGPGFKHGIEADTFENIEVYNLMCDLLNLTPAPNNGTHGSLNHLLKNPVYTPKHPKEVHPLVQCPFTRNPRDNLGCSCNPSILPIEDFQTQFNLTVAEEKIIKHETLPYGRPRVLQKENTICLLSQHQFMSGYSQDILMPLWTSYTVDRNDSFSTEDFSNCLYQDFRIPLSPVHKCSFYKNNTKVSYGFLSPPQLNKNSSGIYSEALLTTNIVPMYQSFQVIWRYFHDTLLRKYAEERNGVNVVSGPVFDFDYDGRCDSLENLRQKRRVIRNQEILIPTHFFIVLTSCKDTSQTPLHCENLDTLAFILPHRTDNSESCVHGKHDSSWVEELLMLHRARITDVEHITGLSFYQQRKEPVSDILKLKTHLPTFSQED
Assay type: biochemical
Procedure: ENPP1 hydrolyzes nucleotides or nucleotide derivatives to yield nucleoside-5′-monophosphate and pyrophosphate. In addition, ENPP1 hydrolyzes 2′,3′-cGAMP to yield 5′-adenosine monophosphate (AMP) and 5′-guanosine monophosphate (GMP). AMP obtained through the above reaction was measured using an AMP-Glo® kit (Promega). The AMP-Glo® kit includes two reagents. The first reagent terminates the AMP-producing enzyme reaction, removes ATP, and converts the produced AMP into ADP. The second reagent converts ADP into ATP, the ATP being used to generate luminescence in the luciferase reaction. The amount of luminescence measured as described above is proportional to the amount of AMP produced by ENPP1.
The final reaction mixture for an assay system contains 50 mM Tris (pH 8.5) buffer, 250 mM NaCl, 0.5 mM CaCl2, 1 μM ZnCl2, 5% glycerol, and 1% DMSO. […] The reaction was initiated by addition of cGAMP (at a final concentration of 5 μM) and carried out at 37° C. for 90 minutes. At the end of the reaction, 10 μl of AMP-Glo first reagent was added to stop the reaction, and then the reaction mixture was stored at room temperature for 1 hour. After storage, the mixture was added with 20 μl of an AMP detection solution (a mixture of AMP-Glo II reagent and Kinase-Glo at a ratio of 1:100) and stored at room temperature for 1 hour. Luminescence signals were measured using a Victor® plate reader (Perkin Elmer). The maximal activity control (containing an enzyme and a substrate in the presence of 1% DMSO; MAX) and the minimal activity control (containing a substrate and 1% DMSO; MIN) were evaluated simultaneously. In each experiment, serially diluted reference ENPP1 inhibitors were tested together. IC50 values for % residual activity versus compound concentration were determined by fitting inhibition curves using a 3-parameter variable slope in GraphPad Prism® software.

Row | IC50 [nM] | Structure (SMILES)
1 | < 1000 | NS(=O)(=O)NCC1CCN(c2ncnc3[nH]ccc23)CC1 [Example 43, N-((1-(7H-pyrrolo[2,3-d]pyrimidin-4-yl)piperidin-4-yl)methyl)sulfamide]
2 | < 1000 | Cn1ccc2c(N3CCC(CNS(N)(=O)=O)CC3)ncnc21 [Example 44, N-((1 (7-methyl-7H-pyrrolo[2,3-d]pyrimidin-4-yl)piperidin-4-yl)methyl)sulfamide]
3 | < 1000 | NS(=O)(=O)NCC1CCN(c2ncnc3c2ccn3-c2ccccc2)CC1 [Example 45, N-((1-(7-phenyl-7H-pyrrolo[2,3-d]pyrimidin-4-yl)piperidin-4-yl)methyl)sulfamide]
4 | < 1000 | NS(=O)(=O)NCC1CCN(c2ncnc3c2ccn3C2CC2)CC1 [Example 46, N-((1-(7-cyclopropyl-7H-pyrrolo[2,3-d]pyrimidin-4-yl)piperidin-4-yl)methyl)sulfamide]
5 | > 10000 | CC(C)n1ccc2c(N3CCC(CNS(N)(=O)=O)CC3)ncnc21 [Example 47, N-((1-(7-isopropyl-7H-pyrrolo[2,3-d]pyrimidin-4-yl)piperidin-4-yl)methyl)sulfamide]
6 | < 1000 | Cc1cc2c(N3CCC(CNS(N)(=O)=O)CC3)ncnc2[nH]1 [Example 51, N-((1-(6-methyl-7H-pyrrolo[2,3-d]pyrimidin-4-yl)piperidin-4-yl)methyl)sulfamide]
7 | < 1000 | NS(=O)(=O)NCCC1CCN(c2ncnc3[nH]ccc23)CC1 [Example 54, N-(2-(1-(7H-pyrrolo[2,3-d]pyrimidin-4-yl)piperidin-4-yl)ethyl)sulfamide]
8 | < 1000 | Cc1c[nH]c2ncnc(N3CCC(CNS(N)(=O)=O)CC3)c12 [Example 78, N-((1-(5-methyl-7H-pyrrolo[2,3-d]pyrimidin-4-yl)piperidin-4-yl)methyl)sulfamide hydrochloride]
9 | < 1000 | CC(NS(N)(=O)=O)C1CCN(c2ncnc3[nH]ccc23)CC1 (stereo not shown) [Example 82, N-(1-(1-(7H-pyrrolo[2,3-d]pyrimidin-4-yl)piperidin-4-yl)ethyl)sulfamide hydrochloride]
10 | < 1000 | NS(=O)(=O)NCC1CCN(c2ncnc3c2ccn3-c2ccco2)CC1 [Example 83, N-((1-7-(furan-2-yl)-7H-pyrrolo[2,3-d]pyrimidin-4-yl)piperidin-4-yl)methyl)sulfamide hydrochloride]
11 | 1000 to 10000 | NS(=O)(=O)NCC1CCN(c2ncnc3c2ccn3-c2cccnc2)CC1 [Example 84, N-((1-(7-(pyridin-3-yl)-7H-pyrrolo[2,3-d]pyrimidin-4-yl)piperidin-4-yl)methyl)sulfamide hydrochloride]
12 | 1000 to 10000 | O=S(=O)(NCC1CCN(c2ncnc3[nH]ccc23)CC1)c1cccs1 [Example 88, N-((1-(7H-pyrrolo[2,3-d]pyrimidin-4-yl)piperidin-4-yl)methyl)thiophene-2-sulfonamide]

The next lines start with the compound.

Row | Structure (SMILES) | IC50 [nM]
13 | NCc1ccc(-c2ccnc3[nH]ccc23)cc1 [Example 10, (4-(1H-pyrrolo[2,3-b]pyridin-4-yl)phenyl)methenamine hydrochloride] | > 10000
14 | NCc1ccc(-c2ncnc3[nH]ccc23)cc1 [Example 11, (4-(7H-pyrrolo[2,3-d]pyrimidin-4-yl)phenyl)methenamine hydrochloride] | 1000 to 10000
15 | CC(C)(N)c1ccc(-c2ncnc3[nH]ccc23)cc1 [Example 12, 2-(4-(7H-pyrrolo[2,3-d]pyrimidin-4-yl)phenyl)propan-2-amine hydrochloride] | > 10000
16 | CC(C)(N)c1ccc(-c2ncnc3c2ccn3-c2cccnc2)cc1 [Example 15, hydrochloride] | > 10000
17 | CC(C)(C)OC(=O)NS(=O)(=O)NCc1ccc(-c2ccnc3[nH]ccc23)cc1 [Example 17, tert-butyl (N-(4-(1H-pyrrolo[2,3-b]pyridin-4-yl)benzyl)sulfamoyl)carbamate] | > 10000
18 | NS(=O)(=O)NCc1ccc(-c2ccnc3[nH]ccc23)cc1 [Example 24, N-(4-(1H-pyrrolo[2,3-b]pyridin-4-yl)benzyl)sulfamide hydrochloride] | 1000 to 10000
19 | NS(=O)(=O)NCc1ccc(-c2ncnc3[nH]ccc23)cc1 [Example 25, N-(4-(7H-pyrrolo[2,3-d]pyrimidin-4-yl)benzyl)sulfamide hydrochloride] | 1000 to 10000
20 | CC(C)(NS(N)(=O)=O)c1ccc(-c2ncnc3[nH]ccc23)cc1 [Example 26, N-(2-(4-(7H-pyrrolo[2,3-d]pyrimidin-4-yl)phenyl)propan-2-yl)sulfamide hydrochloride] | < 1000
21 | CC(NS(N)(=O)=O)c1ccc(-c2ncnc3[nH]ccc23)cc1 (stereo not shown) [Example 27, N-(1-(4-(7H-pyrrolo[2,3-d]pyrimidin-4-yl)phenyl)ethyl)sulfamide hydrochloride] | < 1000
22 | NS(=O)(=O)NCc1ccc(-c2ncnc3[nH]ccc23)cc1F [Example 30, N-(2-fluoro-4-(7H-pyrrolo[2,3-d]pyrimidin-4-yl)benzyl)sulfamide hydrochloride] | 1000 to 10000
23 | NS(=O)(=O)NCc1cccc(-c2ncnc3[nH]ccc23)c1 [Example 34, N-(3-(7H-pyrrolo[2,3-d]pyrimidin-4-yl)benzyl)sulfamide hydrochloride] | 1000 to 10000
24 | NS(=O)(=O)N1CCc2cc(-c3ncnc4[nH]ccc34)ccc2C1 [Example 42, 6-(7H-pyrrolo[2,3-d]pyrimidin-4-yl)-3,4-dihydroisoquinoline-2(1H)-sulfonamide hydrochloride] | 1000 to 10000
25 | CSc1nc(N2CCC(CCNS(N)(=O)=O)CC2)c2cc[nH]c2n1 [Example 53, N-(2-(1-(2-(methylthio)-7H-pyrrolo[2,3-d]pyrimidin-4-yl)piperidin-4-yl)ethyl)sulfamide] | > 10000
26 | Cc1c[nH]c2ncnc(N3CCC(CN)CC3)c12 [Example 63, (1-(5-methyl-7H-pyrrolo[2,3-d]pyrimidin-4-yl)piperidin-4-yl)methenamine hydrochloride] | > 10000
27 | NCC1CCN(c2ncnc3[nH]ccc23)CC1 [Example 65, (1-(7H-pyrrolo[2,3-d]pyrimidin-4-yl)piperidin-4-yl)methenamine hydrochloride] | 1000 to 10000
28 | c1nc(N2CCC3(CCNC3)CC2)c2cc[nH]c2n1 [Example 66, 8-(7H-pyrrolo[2,3-d]pyrimidin-4-yl)-2,8-diazaspiro[4.5]decane hydrochloride] | > 10000
29 | NCC1CCN(c2ncnc3c2ccn3-c2ccco2)CC1 [Example 69, (1-(7-(furan-2-yl)-7H-pyrrolo[2,3-d]pyrimidin-4-yl)piperidin-4-yl)methenamine hydrochloride] | 1000 to 10000
30 | NS(=O)(=O)NC1CCN(c2ncnc3[nH]ccc23)CC1 [Example 79, N-(1-(7H-pyrrolo[2,3-d]pyrimidin-4-yl)piperidin-4-yl)sulfamide hydrochloride] | 1000 to 10000
31 | NS(=O)(=O)N1CCC2(CCN(c3ncnc4[nH]ccc34)CC2)C1 [Example 80, 8-(7H-pyrrolo[2,3-d]pyrimidin-4-yl)-2,8-diazaspiro[4.5]decane-2-sulfamide hydrochloride] | < 1000
